Laboratory results as given in patent publication US11447466B2, “Substituted indole compounds useful as inhibitors of TLR7/8/9” (BRISTOL-MYERS SQUIBB COMPANY, priority 2017, dated 2022).

How the values were obtained:
Type in all cases: cell-based
human TLR9 = biological target: T1, human TLR9 (Homo sapiens, UniProt Q9NR96); assay: TLR9 inhibition reporter assay (HEK-Blue SEAP reporter, ODN2006 stimulation); conditions: HEK-Blue cells overexpressing human TLR9, SEAP reporter, ODN2006 5 nM, 22 hour incubation
T1 construct: host or cells: HEK-Blue cells
T1 sequence (Q9NR96 26-1032): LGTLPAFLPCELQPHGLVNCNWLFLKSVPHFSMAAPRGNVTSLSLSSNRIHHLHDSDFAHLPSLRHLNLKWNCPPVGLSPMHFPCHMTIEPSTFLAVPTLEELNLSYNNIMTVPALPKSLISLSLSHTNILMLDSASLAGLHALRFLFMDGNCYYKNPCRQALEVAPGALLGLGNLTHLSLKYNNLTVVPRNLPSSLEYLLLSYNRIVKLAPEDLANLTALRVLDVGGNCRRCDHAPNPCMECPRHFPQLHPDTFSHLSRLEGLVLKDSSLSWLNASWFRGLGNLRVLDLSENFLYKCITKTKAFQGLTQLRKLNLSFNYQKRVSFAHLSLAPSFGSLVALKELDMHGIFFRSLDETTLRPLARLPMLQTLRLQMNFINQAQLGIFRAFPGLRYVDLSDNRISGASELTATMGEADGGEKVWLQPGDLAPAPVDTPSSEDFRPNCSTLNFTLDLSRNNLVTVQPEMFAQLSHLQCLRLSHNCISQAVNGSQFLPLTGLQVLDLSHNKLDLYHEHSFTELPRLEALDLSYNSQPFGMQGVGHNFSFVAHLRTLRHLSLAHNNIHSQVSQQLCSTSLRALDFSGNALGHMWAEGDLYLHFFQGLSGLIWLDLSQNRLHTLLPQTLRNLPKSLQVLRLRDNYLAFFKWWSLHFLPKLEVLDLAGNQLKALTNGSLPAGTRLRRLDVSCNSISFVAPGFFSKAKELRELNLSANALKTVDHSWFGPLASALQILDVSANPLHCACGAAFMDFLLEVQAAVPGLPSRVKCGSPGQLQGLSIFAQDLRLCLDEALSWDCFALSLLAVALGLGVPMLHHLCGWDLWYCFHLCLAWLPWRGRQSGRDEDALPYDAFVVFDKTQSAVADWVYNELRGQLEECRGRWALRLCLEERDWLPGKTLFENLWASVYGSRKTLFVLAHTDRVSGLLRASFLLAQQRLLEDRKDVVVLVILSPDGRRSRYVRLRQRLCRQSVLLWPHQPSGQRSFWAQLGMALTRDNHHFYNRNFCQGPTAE
Procedure, shortened: (§1)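 Compound treatment: 30 min, RT, 0.05 nM–50 μM final. Agonist: TLR7 gardiquimod 7.5 μM; TLR8 R848 15.9 μM; TLR9 ODN2006 5 nM. Incubation 22 h, 37 °C, 5% CO2. Readout SEAP, HEK-Blue Detection.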

human TLR8 = biological target: T2, human TLR8 (Homo sapiens, UniProt Q9NR97); assay: TLR8 inhibition reporter assay (HEK-Blue SEAP reporter, R848 stimulation); conditions: HEK-Blue cells overexpressing human TLR8, SEAP reporter, R848 15.9 μM, 22 hour incubation
T2 construct: host or cells: HEK-Blue cells
T2 sequence (Q9NR97 27-1041): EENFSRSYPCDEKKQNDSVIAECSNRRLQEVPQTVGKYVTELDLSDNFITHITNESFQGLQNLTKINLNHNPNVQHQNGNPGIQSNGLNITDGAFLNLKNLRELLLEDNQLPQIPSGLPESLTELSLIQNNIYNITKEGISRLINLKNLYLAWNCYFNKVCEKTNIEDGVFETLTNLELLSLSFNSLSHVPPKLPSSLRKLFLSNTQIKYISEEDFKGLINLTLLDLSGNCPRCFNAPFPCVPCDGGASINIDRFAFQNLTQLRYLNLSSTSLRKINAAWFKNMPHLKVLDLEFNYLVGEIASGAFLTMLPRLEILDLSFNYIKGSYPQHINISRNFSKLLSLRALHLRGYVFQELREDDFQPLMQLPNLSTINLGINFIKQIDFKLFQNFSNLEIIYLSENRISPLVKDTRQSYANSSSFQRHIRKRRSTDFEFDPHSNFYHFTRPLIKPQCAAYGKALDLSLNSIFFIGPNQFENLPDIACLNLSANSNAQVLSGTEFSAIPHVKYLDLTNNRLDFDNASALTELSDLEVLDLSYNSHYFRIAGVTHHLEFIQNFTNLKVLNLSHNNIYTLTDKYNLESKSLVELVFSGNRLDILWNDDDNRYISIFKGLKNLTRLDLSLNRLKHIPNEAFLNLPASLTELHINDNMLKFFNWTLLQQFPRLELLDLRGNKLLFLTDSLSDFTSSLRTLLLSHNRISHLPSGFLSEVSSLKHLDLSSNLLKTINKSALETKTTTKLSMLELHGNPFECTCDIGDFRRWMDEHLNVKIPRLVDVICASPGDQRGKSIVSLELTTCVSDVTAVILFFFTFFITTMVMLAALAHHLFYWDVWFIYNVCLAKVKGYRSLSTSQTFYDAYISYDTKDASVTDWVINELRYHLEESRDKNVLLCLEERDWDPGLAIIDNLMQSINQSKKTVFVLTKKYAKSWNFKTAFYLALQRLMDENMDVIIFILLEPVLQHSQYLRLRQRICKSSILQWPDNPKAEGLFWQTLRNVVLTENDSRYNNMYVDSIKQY
Procedure, shortened: as §1

human TLR7 = biological target: T3, human TLR7 (Homo sapiens, UniProt Q9NYK1); assay: TLR7 inhibition reporter assay (HEK-Blue SEAP reporter, gardiquimod stimulation); conditions: HEK-Blue cells overexpressing human TLR7, SEAP reporter, gardiquimod 7.5 μM, 22 hour incubation
T3 construct: host or cells: HEK-Blue cells
T3 sequence (Q9NYK1 27-1049): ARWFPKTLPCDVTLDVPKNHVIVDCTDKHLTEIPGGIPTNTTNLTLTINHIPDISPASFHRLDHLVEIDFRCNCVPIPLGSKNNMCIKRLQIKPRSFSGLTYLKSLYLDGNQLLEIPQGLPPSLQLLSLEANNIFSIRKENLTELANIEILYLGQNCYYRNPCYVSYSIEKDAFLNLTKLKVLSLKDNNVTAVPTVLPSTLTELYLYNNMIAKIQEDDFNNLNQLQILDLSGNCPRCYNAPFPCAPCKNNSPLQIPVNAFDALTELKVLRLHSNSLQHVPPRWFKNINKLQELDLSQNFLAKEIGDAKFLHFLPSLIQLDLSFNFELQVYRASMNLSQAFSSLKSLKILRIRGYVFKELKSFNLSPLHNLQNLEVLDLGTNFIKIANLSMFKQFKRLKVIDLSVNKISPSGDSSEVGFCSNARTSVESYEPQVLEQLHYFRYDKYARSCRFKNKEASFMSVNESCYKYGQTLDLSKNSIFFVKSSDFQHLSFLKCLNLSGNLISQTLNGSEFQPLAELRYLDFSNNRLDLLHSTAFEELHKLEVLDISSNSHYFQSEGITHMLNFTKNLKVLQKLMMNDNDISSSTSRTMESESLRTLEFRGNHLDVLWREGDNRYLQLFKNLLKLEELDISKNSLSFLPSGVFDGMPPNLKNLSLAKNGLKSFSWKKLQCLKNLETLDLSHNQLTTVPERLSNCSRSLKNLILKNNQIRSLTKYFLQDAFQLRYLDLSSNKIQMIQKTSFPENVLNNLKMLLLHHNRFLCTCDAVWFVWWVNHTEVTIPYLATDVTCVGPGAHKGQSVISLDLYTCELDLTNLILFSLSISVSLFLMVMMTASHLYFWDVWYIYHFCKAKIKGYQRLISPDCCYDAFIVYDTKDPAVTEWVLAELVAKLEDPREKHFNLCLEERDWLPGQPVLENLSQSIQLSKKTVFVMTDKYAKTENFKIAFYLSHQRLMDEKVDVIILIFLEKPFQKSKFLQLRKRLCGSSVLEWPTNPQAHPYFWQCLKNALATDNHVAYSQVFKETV
Procedure, shortened: as §1

Work on `COCc1cc(-c2[nH]c3ccc(C4CCN(C5COC5)CC4)cc3c2C(C)C)cn(C)c1=O` [Example 346, 5-(3-isopropyl-5-(1-(oxetan-3-yl)piperidin-4-yl)-1H-indol-2-yl)-3-(methoxymethyl)-1-methylpyridin-2(1H)-one] yielded an IC50 (human TLR9) of 16700 nM, an IC50 (human TLR8) of 86.8 nM and an IC50 (human TLR7) of 37.9 nM.

For `COCc1cc(-c2[nH]c3ccc(C4CCN(C(C)C)CC4)cc3c2C(C)C)cn(C)c1=O` [Example 347, 5-(3-isopropyl-5-(1-isopropylpiperidin-4-yl)-1H-indol-2-yl)-3-(methoxymethyl)-1-methylpyridin-2(1H)-one], the IC50 (human TLR9) was 13600 nM, the IC50 (human TLR8) was 28.6 nM and the IC50 (human TLR7) was 7.2 nM.

With `CCCN1CCC(c2ccc3[nH]c(-c4cc(COC)c(=O)n(C)c4)c(C(C)C)c3c2)CC1` [Example 348, 5-(3-isopropyl-5-(1-propylpiperidin-4-yl)-1H-indol-2-yl)-3-(methoxymethyl)-1-methylpyridin-2(1H)-one] the IC50 (human TLR9) was 10800 nM, the IC50 (human TLR8) was 25.3 nM and the IC50 (human TLR7) was 7.1 nM.

`COCCN1CCC(c2ccc3[nH]c(-c4cc(-c5ccc(C)nc5)c(=O)n(C)c4)c(C(C)C)c3c2)CC1` [Example 349, 5-(3-isopropyl-5-(1-(2-methoxyethyl)piperidin-4-yl)-1H-indol-2-yl)-1,6′-dimethyl-[3,3′-bipyridin]-2(1H)-one] was tested, and the IC50 (human TLR9) was 782 nM, the IC50 (human TLR8) was 72.6 nM and the IC50 (human TLR7) was 14.5 nM.

Work on `COCCN1CCC(c2ccc3[nH]c(-c4cc(-c5cnn(C)c5)c(=O)n(C)c4)c(C(C)C)c3c2)CC1` [Example 350, 5-(3-isopropyl-5-(1-(2-methoxyethyl)piperidin-4-yl)-1H-indol-2-yl)-1-methyl-3-(1-methyl-1H-pyrazol-4-yl)pyridin-2(1H)-one] yielded an IC50 (human TLR9) of 2140 nM, an IC50 (human TLR8) of 1.4 nM and an IC50 (human TLR7) of 14.4 nM.

Compound `COCc1cc(-c2[nH]c3ccc(C4CCN(CC(=O)N(C)C)CC4)cc3c2C(C)C)cn(C)c1=O` [Example 351, 2-(4-(3-isopropyl-2-(5-(methoxymethyl)-1-methyl-6-oxo-1,6-dihydropyridin-3-yl)-1H-indol-5-yl)piperidin-1-yl)-N,N-dimethylacetamide] has an IC50 (human TLR9) of 11900 nM, an IC50 (human TLR8) of 135 nM and an IC50 (human TLR7) of 78.5 nM.

`C=Cc1cc(-c2[nH]c3ccc(C4CCN(CC(=O)N(C)C)CC4)cc3c2C(C)C)cn(C)c1=O` [Example 352, 2-(4-(3-isopropyl-2-(1-methyl-6-oxo-5-vinyl-1,6-dihydropyridin-3-yl)-1H-indol-5-yl)piperidin-1-yl)-N,N-dimethylacetamide] was tested, and the IC50 (human TLR9) was 2420 nM, the IC50 (human TLR8) was 31.5 nM and the IC50 (human TLR7) was 21.5 nM.
